Measured values as given in ChEMBL document CHEMBL1201862, “PubChem BioAssay data set” (2004).
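The compound was tested at five concentrations on cells cultured in 96-well plates, with a 48-hour exposure period. GI50 marks 50% less growth.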 The source made the active and inactive calls. No stated cut-off is given here; in the data, active = GI50 up to about 1.1 µM and inactive = higher.

Experiments:
Assay in all cases: NCI-60 cell line screen, 48 h
[1] = tested on: T47D
[2] = tested on: SF-295
[3] = tested on: MCF7
[4] = tested on: OVCAR-4
[5] = tested on: MDA-MB-435
[6] = tested on: MOLT-4
[7] = tested on: RPMI-8226
[8] = tested on: MDA-N
[9] = tested on: SR
[10] = tested on: SK-MEL-2
[11] = tested on: HCT-15
[12] = tested on: LOX IMVI
[13] = tested on: UO-31
[14] = tested on: A549
[15] = tested on: SK-MEL-5
[16] = tested on: OVCAR-8
[17] = tested on: HL-60
[18] = tested on: HT-29
[19] = tested on: TK-10
[20] = tested on: SNB-75

Structure (SMILES)	GI50 [1]	GI50 [2]	GI50 [3]	GI50 [4]	GI50 [5]	GI50 [6]	GI50 [7]	GI50 [8]	GI50 [9]	GI50 [10]	GI50 [11]	GI50 [12]	GI50 [13]	GI50 [14]	GI50 [15]	GI50 [16]	GI50 [17]	GI50 [18]	GI50 [19]	GI50 [20]
O=C1N2CCc3c([nH]c4ccccc34)C23CC2CCCC12S3 (stereo unspecified)	20.5 µM (inactive)	20.3 µM (inactive)	18.7 µM (inactive)	41 µM (inactive)	33.7 µM (inactive)	25.8 µM (inactive)	27.4 µM (inactive)	27.9 µM (inactive)	28.9 µM (inactive)	> 50 µM (inactive)	18.1 µM	34.2 µM (inactive)	32 µM (inactive)	17.7 µM (inactive)	20.3 µM (inactive)	28.8 µM (inactive)	> 50 µM (inactive)	18.4 µM (inactive)	> 50 µM (inactive)	–
COc1cc2c(cc1OC)C13CCN4CC5CCOC6CC(=O)N2C1C6C5CC43 (stereo unspecified)	> 100 µM (inactive)	> 100 µM (inactive)	> 100 µM (inactive)	> 100 µM (inactive)	> 100 µM (inactive)	1.81 µM (inactive)	> 100 µM (inactive)	> 100 µM (inactive)	2.65 µM (inactive)	> 100 µM (inactive)	> 100 µM	> 100 µM (inactive)	> 100 µM (inactive)	> 100 µM (inactive)	> 100 µM (inactive)	> 100 µM (inactive)	> 100 µM (inactive)	> 100 µM (inactive)	> 100 µM (inactive)	–
C1=N\c2ccc(cc2)-c2ccc(cc2)/N=C\c2ccc(cc2)OCc2cccc(n2)COc2ccc/1cc2	> 100 µM (inactive)	79.4 µM (inactive)	> 100 µM (inactive)	> 100 µM (inactive)	> 100 µM (inactive)	85.3 µM (inactive)	> 100 µM (inactive)	> 100 µM (inactive)	> 100 µM (inactive)	> 100 µM (inactive)	> 100 µM	–	> 100 µM (inactive)	> 100 µM (inactive)	> 100 µM (inactive)	25.1 µM (inactive)	> 100 µM (inactive)	> 100 µM (inactive)	–	64.7 µM (inactive)
